According to patent US8927521B2, “Cyclic adenosine monophosphates for reducing the formation of adhesions” (University of Pittsburgh—of the Commonwealth System of …, priority 2008, dated 2015):
Several values for one entry are separate records, joined by “and”; a condition that tells them apart may be missing. Identical values can stand only once.

How the values were obtained:
[1] = system: post-surgical adhesion formation; test: Post-surgical adhesion formation in mice, all groups co-treated with 1,3-dipropyl-8-(p-sulfophenyl)xanthine (Example 2); type: in vivo; conditions: for adhesion score (mean±standard error of mean): scale 1 to 5; for adhesion scores (individual animals): one value per mouse
Procedure: (§1) This protocol examined the effects of several treatments on post-surgical adhesion formation. Six-week-old C57Bl mice were fasted overnight and then anesthetized the following day with an intraperitoneal injection of pentobarbital (50 mg/kg). The surgical procedures were conducted under aseptic conditions. The abdomen was shaved to remove hair, and the incision site was cleaned with betadine solution. Surgery was performed under a laminar flow hood using instruments sterilized in a glass bead sterilizer. The abdomen was opened via a midline incision of approximately 10 mm. The cecum was exposed and placed on sterile gauze. […] After 30 seconds, the ethanol was washed from the cecum surface with 1-ml of test solution. Next, the cecum was returned to the peritoneal cavity and placed in its natural position. Then 1-ml of test solution was placed in the peritoneal cavity, and the abdominal incision was repaired by suturing. […] The animals were placed under a warming lamp and observed until they regained consciousness. After regaining consciousness, the mice were placed back in the housing cage.
Ten days later, the animals were again anesthetized with pentobarbital, and the abdomen was surgically opened to provide a clear view of the intestines. The severity of adhesion formation was assessed on a semi-quantitative scale from 1 to 5, taking into account the extent of adhesion formation (with 1 being the least amount of adhesion formation and 5 being the most amount of adhesion formation). Adhesions were identified visually and by noting the difficulty of separating adjacent surfaces. Adhesion scores were assigned by an individual blinded to (that is unaware of) the test solutions used to treat the animals. The scoring was based on the extent of adhesion of the cecum to itself and to adjacent tissues or organs. A score of 1 was assigned to animals when there was only minimal (approximately >10 to <20%) adhesion of the cecum to itself (that is within the cecum core) with no adhesion of the cecum to other adjacent structures (abdominal wall, liver or intestines). A score of 2 was assigned when there was mild (approximately >20 to <30%) adhesion of the cecum to itself or when there was minimal (approximately >10 to <20%) adhesion of the cecum to itself but in addition minimal adhesion of the cecum to adjacent structures. A score of 3 was assigned to animals when the adhesion of the cecum to itself was moderate (approximately >30 to <50%), in the absence or presence of minimal adhesion of the cecum to adjacent structures. A score of 4 was assigned to animals when the adhesion of the cecum to itself was severe (approximately >60 to <80%) or when there was moderate adhesion to adjacent structures or both. A score of 5 was assigned to animals when adhesion of the cecum to itself was so extensive that it existed as one entity (complete adhesion within itself) or when there was severe adhesion of the cecum to itself but in addition severe adhesion of the cecum to adjacent structures.

[2] = system: P1 adenosine receptor subtypes (A1, A2A, A2B and A3); conditions: at 1 mM; cited from earlier work
[3] = system: post-surgical adhesion formation; test: Post-surgical abdominal adhesion formation after cecum injury in mice (Example 1); type: in vivo, C57Bl mice; conditions: for adhesion score compared with saline control group or other treatments (Fisher's Least Significant Difference test): post-hoc analysis, Example 1; for adhesion score (mean±standard error of mean): 1 ml wash + 1 ml in peritoneal cavity, scored ten days later; for adhesion scores for all mice (individual animals): one value per mouse
Procedure: as §1, with “cage. Ten days later, the animals were again anesthetized with pentobarbital, and the abdomen was surgically opened to provide a clear view of the intestines. […] Adhesions were identified visually and by noting the difficulty of separating adjacent surfaces. Adhesion scores were assigned by an individual blinded to (that is unaware of) the test solutions used to treat the animals. The scoring was based on the extent of adhesion of the cecum to itself and to adjacent tissues or organs. […] In this example, there were six groups that were treated with test solutions containing chemical agents of interest. In addition, there was a seventh group (the control group) in which the test solution was only the vehicle in which the chemical agents of interest were dissolved. The vehicle for all six test solutions was 0.9% saline, so the seventh group (control group) received only 0.9% saline as the test solution.” for “cage.”

[4] = Text: However, there are serious limitations with regard to using adenosine for this purpose that preclude an optimal anti-adhesive efficacy. […] Dis Colon Rectum. […] Consequently the time-concentration profile of adenosine in the surgical field cannot be optimized.
[5] = scale 1 to 5, 75 millimoles/L in 0.9% saline

SMILES: CCCn1c(=O)c2[nH]c(-c3ccc(S(=O)(=O)O)cc3)nc2n(CCC)c1=O [1,3-dipropyl-8-(p-sulfophenyl)xanthine]
- adhesion score (mean±standard error of mean) ([1]; 1,3-dipropyl-8-(p-sulfophenyl)xanthine 1 mM + saline only (group headed Saline)): 4.75±0.22
- adhesion scores (individual animals) ([1]; 1,3-dipropyl-8-(p-sulfophenyl)xanthine 1 mM + saline only): 5 (3×) and 4
- blockade of adenosine receptor subtypes [2]: blocks all four P1 adenosine receptor subtypes

SMILES: Nc1ncnc2c1ncn2[C@@H]1O[C@H](CO)[C@@H](O)[C@H]1OP(=O)(O)O [2′-adenosine monophosphate]
- efficacy in inhibiting formation of post-surgical abdominal adhesions (in words) ([3]; 75 millimoles/L): nearly inactive
- adhesion score compared with saline control group or other treatments (Fisher's Least Significant Difference test) [3]: only slightly less than
- adhesion score (mean±standard error of mean) [3, 5]: 4.08±0.15
- adhesion scores for all mice (individual animals) ([3]; scale 1 to 5, 75 millimoles/L, listed as 2′-AMP): 4 (9×) and 3 and 5 (2×)

SMILES: Nc1ncnc2c1ncn2[C@@H]1O[C@H](CO)[C@@H](OP(=O)(O)O)[C@H]1O [3′-adenosine monophosphate]
- efficacy in inhibiting formation of post-surgical abdominal adhesions (in words) ([3]; 75 millimoles/L): nearly inactive
- adhesion score compared with saline control group or other treatments (Fisher's Least Significant Difference test) [3]: only slightly less than
- adhesion score (mean±standard error of mean) [3, 5]: 4.00±0.17
- adhesion scores for all mice (individual animals) ([3]; scale 1 to 5, 75 millimoles/L, listed as 3′-AMP): 4 (8×) and 3 (2×) and 5 (2×)

SMILES: Nc1ncnc2c1ncn2[C@@H]1O[C@H](COP(=O)(O)O)[C@@H](O)[C@H]1O [5′-adenosine monophosphate]
- concentration of stable aqueous solutions (aqueous solubility) [4]: > 75 millimoles/L
- efficacy in inhibiting formation of post-surgical abdominal adhesions (in words) ([3]; 75 millimoles/L): nearly inactive
- adhesion score compared with saline control group or other treatments (Fisher's Least Significant Difference test) [3]: only slightly less than
- adhesion score (mean±standard error of mean) [3, 5]: 3.82±0.18
- adhesion scores for all mice (individual animals) ([3]; scale 1 to 5, 75 millimoles/L, listed as 5′-AMP): 4 (7×) and 3 (3×) and 5

SMILES: Nc1ncnc2c1ncn2[C@@H]1O[C@H](CO)[C@@H](O)[C@H]1O [Adenosine]
- concentration of stable aqueous solutions (aqueous solubility) [4]: ≤ 23 millimoles/L
- adhesion scores (individual animals) ([1]; 23 mM + 1,3-dipropyl-8-(p-sulfophenyl)xanthine 1 mM): 4 (3×) and 5
- adhesion score (mean±standard error of mean) ([1]; 23 millimoles/L + 1,3-dipropyl-8-(p-sulfophenyl)xanthine 1 mM): 4.25±0.22
- adhesion score compared with the saline group (Fisher's Least Significant Difference test) ([1]; in presence of 1,3-dipropyl-8-(p-sulfophenyl)xanthine 1 mM): did not significantly reduce
- adhesion score (mean±standard error of mean) ([3]; scale 1 (least) to 5 (most), 23 millimoles/L in 0.9% saline): 3.08±0.15
- adhesion scores for all mice (individual animals) ([3]; scale 1 to 5, 23 millimoles/L): 3 (9×) and 4 (2×) and 2
